Values joined by “and” are separate entries in the source; they are usually repeats but may differ in a detail not shown here. Equal entries are not always repeated.
How the values were obtained:
[1] = tested on: Colon 26 (Balb/C Colon cancer); assay: Colon 26 transplanted subcutaneously to Balb/C mice: tumor weight and survival rate; assay type: in vivo; settings: Colon 26 s.c. in Balb/C mice; Eisenin i.p. 5 mg per animal every other day three times
Description: (§1) The animals used as experimental materials were Balb/C mice and nude mice, and the tumors used were Colon (Balb/C Colon cancer) and Sarcoma 180.
a. 1,000,000 Cells of Colon 26 were transplanted subcutaneously to Balb/C mice.

[2] = tested on: Sarcoma 180; assay: Sarcoma 180 transplanted subcutaneously to Balb/C mice: tumor weight; assay type: in vivo; settings: Sarcoma 180 s.c. in Balb/C mice; Eisenin i.p. and orally 5 mg per animal every other day three times
Description: as §1

[3] = tested on: Colon 26; assay: Sensitivity test: inclusion of tritium thymidine, uridine and leucine into cultured Colon 26; assay type: cell-based; settings: for Average Counts per Minute, Leucine / Counts per Minute in the Case of Leucine: leucine (protein); for Average Counts per Minute, Leucine / Counts per Minute in the Case of Leucine / Average Counts per Minute, Tritium Thymidine / Counts per Minute in the Case of Tritium Thymidine / Average Counts per Minute, Uridine / Counts per Minute in the Case of Uridine: 3 days; for Counts per Minute in the Case of Leucine / Counts per Minute in the Case of Tritium Thymidine / Counts per Minute in the Case of Uridine: single counts; for Average Counts per Minute, Tritium Thymidine / Counts per Minute in the Case of Tritium Thymidine: tritium thymidine (DNA); for Average Counts per Minute, Uridine / Counts per Minute in the Case of Uridine: uridine (RNA)
Experimental: (1) Inhibition Index (I.I.) is calculated from the following equation, an
where I.I. exceeds 75%, it is judged effective.
- (2) Measurement is made on a scintillation counter.

[4] = tested on: BW 5174 (thymoma of AKR mouse); assay: Cytotoxicity test (51Cr release) of spleen and intraperitoneal cells of Eisenin-administered mice; assay type: cell-based
Description: Further, the target cell employed was BW 5174 (thymoma of AKR mouse). The spleen cells and the intraperitoneal cells were respectively divided into the adherent cells and the non-adherent cells, and cytotoxicity was examined in each case.
(1) Percent Cytotoxicity (%) in Table 3 is based on the following
(2) Measurement is made by ^51 Cr release assay. (3) Acute Toxicit

[5] = tested on: Balb/C mice; assay: Acute toxicity test; assay type: in vivo; settings: for No. of Death: 9 Balb/C mice
[6] = Effective dosage estimated from the various test results; assay type: in vivo; settings: average body weight of Balb/C mice taken as 20 g
[7] = Water solubility; assay type: physicochemical

## L-Pyroglu-L-Gln-L-Ala [Eisenin]
[1]
  anti-tumor effect (weight of the tumor, survival rate; FIG. 1, FIG. 2): an anti-tumor effect of Eisenin is recognized
[2]
  anti-tumor effect (weight of the tumor; FIG. 5): a similar anti-tumor effect is recognized
[3]; Colon 26 culture, all concentrations and labels
  direct effect on tumor cells (sensitivity test; I.I. above 75% is judged effective): no direct effect of Eisenin on tumor cells
[3]; Eisenin 0.0001 mg/ml
  Average Counts per Minute, Leucine: 12232 CPM
  Counts per Minute in the Case of Leucine: 12952 CPM and 11936 CPM and 11808 CPM and 10952 CPM
  Average Counts per Minute, Tritium Thymidine: 229878 CPM
  Counts per Minute in the Case of Tritium Thymidine: 231236 CPM and 219336 CPM and 224786 CPM and 233612 CPM
  Average Counts per Minute, Uridine: 30793 CPM
  Counts per Minute in the Case of Uridine: 32836 CPM and 29585 CPM and 24135 CPM and 29958 CPM
[3]; Eisenin 0.001 mg/ml
  Average Counts per Minute, Leucine: 13743 CPM
  Counts per Minute in the Case of Leucine: 13620 CPM and 14230 CPM and 13379 CPM and 11355 CPM
  Average Counts per Minute, Tritium Thymidine: 218332 CPM
  Counts per Minute in the Case of Tritium Thymidine: 220010 CPM and 213816 CPM and 221170 CPM and 213017 CPM
  Average Counts per Minute, Uridine: 31169 CPM
  Counts per Minute in the Case of Uridine: 39415 CPM and 31675 CPM and 28671 CPM and 33161 CPM
[3]; Eisenin 0.01 mg/ml
  Average Counts per Minute, Leucine: 11478 CPM
  Counts per Minute in the Case of Leucine: 12285 CPM and 11020 CPM and 12097 CPM and 11318 CPM
  Average Counts per Minute, Tritium Thymidine: 238823 CPM
  Counts per Minute in the Case of Tritium Thymidine: 207474 CPM and 229569 CPM and 240628 CPM and 246273 CPM
  Average Counts per Minute, Uridine: 33039 CPM
  Counts per Minute in the Case of Uridine: 37043 CPM and 33211 CPM and 31498 CPM and 34408 CPM
[3]; Eisenin 0.1 mg/ml
  Average Counts per Minute, Leucine: 11318 CPM
  Counts per Minute in the Case of Leucine: 13311 CPM and 12566 CPM and 8076 CPM and 7076 CPM
  Average Counts per Minute, Tritium Thymidine: 198381 CPM
  Counts per Minute in the Case of Tritium Thymidine: 190120 CPM and 203872 CPM and 201151 CPM and 223845 CPM
  Average Counts per Minute, Uridine: 25426 CPM
  Counts per Minute in the Case of Uridine: 32774 CPM and 25271 CPM and 24222 CPM and 26786 CPM
[3]; Eisenin 1.0 mg/ml
  Average Counts per Minute, Leucine: 6521 CPM
  Counts per Minute in the Case of Leucine: 6826 CPM and 6150 CPM and 6587 CPM
  Average Counts per Minute, Tritium Thymidine: 170297 CPM
  Counts per Minute in the Case of Tritium Thymidine: 140430 CPM and 171170 CPM and 163554 CPM and 176167 CPM
  Average Counts per Minute, Uridine: 21107 CPM
  Counts per Minute in the Case of Uridine: 27088 CPM and 20903 CPM and 19954 CPM and 22463 CPM
[4]
  difference in cytotoxicity versus control group, intraperitoneal cells: a significant difference
[5]; Eisenin 3 g/kg intraperitoneally
  No. of Death: 1/9
[5]; Eisenin 6 g/kg intraperitoneally
  No. of Death: 7/9
[5]; intraperitoneal, Balb/C mice
  LD50: ~5 g/kg
[6]
  effective dosage as estimated from the test results: about 15 mg per 20 g
[7]
  solubility in water: water soluble
